According to patent publication US20040152670A1, “Novel aminoindanes” (priority 1999, published 2004):
Read-outs that look alike come from different tables or passages of the source.

Tests used:
[1] = tested on: Group II/III metabotropic glutamate receptors (mGluRs); experiment: Cyclic AMP assay in rat cortical slices (forskolin-induced cyclic AMP accumulation); format: cell-based, Sprague Dawley rat; conditions: for Group II/III Agonist: inhibits forskolin-induced cyclic AMP accumulation; for Group II/III Agonist / Group II/III Antagonist: Yes/No; for Group II/III Antagonist: inhibits the glutamate-caused decrease in forskolin-induced cyclic AMP accumulation
Experimental: The assay of cyclic AMP formation can be performed as described previously (Tovey el al., Clinica Chimica Acta, 56, 221-234, 1974). The assay can be modelled on the cyclic AMP assay kit available from Amersham, which in turn, is based on the assay created by Tovey el al. Briefly, samples are prepared from Sprague Dawley rat (225-250 g) cortical slices. Slices are incubated with the drug, and then challenged with forskolin to induce cyclic AMP release. Following termination of the reaction by boiling, the slices are homogenized and centrifuged. Samples of supernatant are then incubated for 2-3 hours with a known quantity of [^3H]cAMP and a binding protein. When the incubation is complete, the bound cyclic AMP is separated from the free cyclic AMP by centrifugation with charcoal. The resulting supernatant (containing free cyclic AMP) is then analyzed by liquid scintillation counting. The amount of unbound cyclic AMP can be calculated from a standard curve previously determined with various samples of free cyclic AMP. Group II/III metabotropic glutamate receptors (mGluRs) are negatively coupled to adenylate cyclase, and agonists of these receptors lead to a decrease in intracellular cyclic AMP accumulation. The assay has been modeled on the cyclic AMP assay kit available from Amersham. This kit, in turn, is based on the assay created by Tovey et al. (1974). Briefly, the samples were prepared from Sprague Dawley rat (225-250 g) cortical slices. Slices were incubated with the test compound (drug), and then challenged with forskolin to induce cyclic AMP release. Following termination of the reaction by boiling, the slices were homogenized and centrifuged. Samples of supernatant were then incubated for 2-3 hours with a known quantity of [^3H]cAMP and a binding protein. When the incubation was complete, the bound cyclic AMP was separated from the free cyclic AMP by centrifugation with charcoal. The resulting supernatant (containing free cyclic AMP) was then analyzed by liquid scintillation counting. The amount of unbound cyclic AMP was calculated from a standard curve previously determined with various samples of free cyclic AMP. If the drugs tested inhibit forskolin-induced cyclic AMP accumulation, they are considered to be Group II/III agonists. Conversely, if they inhibit the decrease in forskolin-induced cyclic AMP accumulation caused by glutamate, they are considered to be Group II/III antagonists.

[2] = tested on: Group I metabotropic glutamate receptors (mGluRs); experiment: Phosphatidylinositol assay in neonatal rat tissue slices (inositol phosphate accumulation); format: cell-based, Sprague Dawley rat; conditions: for EC50: inhibition of the inositol phosphate accumulation induced by ACPD, read-out: Group I Antagonist EC50; for Group I Agonist: increase in intracellular free inositol phosphate accumulation; for Group I Agonist / Group I Antagonist: Yes/No; for Group I Antagonist: inhibits the inositol phosphate accumulation induced by ACPD
Experimental: Briefly, cross-chopped slices are prepared from neonatal Sprague Dawley rat tissue (age: p7-p14). The slices are pre-labelled with [3H] myo-inositol. Following pre-labelling, the slices are incubated with the test drugs and standard (known Group I agonists i.e. ACPD) for a period of 45 minutes. The incubation is terminated by the addition of chloroform/methanol/HCl (100:200:2). The resulting mixture is separated into two phases by the addition of chloroform and distilled water. The aqueous fraction is applied to ion exchange columns, and inositol phosphates are eluted using 800 mM Ammonium Formate/100 mM Formic Acid. The eluent is then analyzed using liquid scintillation counting. The amount of inositol phosphate accumulation is expressed as a percentage of that induced by ACPD. Group I metabotropic glutamate receptors (mGluRs) are positively coupled on inositol phosphate metabolism. Agonists at these receptors lead to an increase in intracellular free inositol phosphates, while antagonists inhibit the increase in intracellular free inositol phosphate induced by standard agonists (i.e. ACPD). Cross-chopped slices were prepared from neonatal Sprague Dawley rat tissue (age: p7-p14). The slices were pre-labelled with [^3H] myo-inositol. Following pre-labelling, the slices were incubated with the test compounds and standard (known Group I agonists i.e. ACPD) for a period of 45 minutes. The incubation was terminated by the addition of chloroform/methanol/HCl (100:200:2). The resulting mixture was separated into two phases by the addition of chloroform and distilled water. The aqueous fraction was applied to ion exchange columns, and inositol phosphates were eluted using 800 mM Ammonium Formate/100 mM Formic Acid. The eluent was then analyzed using liquid scintillation counting. The amount of inositol phosphate accumulation was expressed as a percentage of that induced by ACPD. If the drugs cause an increase in intracellular free inositol phosphate accumulation, they are considered to be Group I agonists. […]

mGluR1α receptor = molecular target: T1, mGluR1α receptor (Rattus norvegicus, UniProt P23385); experiment: PI hydrolysis antagonist assay in Chinese hamster ovary cell lines expressing cloned mGluR1α; format: cell-based; conditions: CHO cells expressing cloned mGluR1α; compound at 5 mM; 10 µM (L)-glutamic acid; FIG. 1
T1 construct: expressed in transfected cells; host or cells: Chinese hamster ovary (CHO) cells
Experimental: The Chinese hamster ovary cell lines expressing mGluR1α, mGlu R2 and mGluR4αreceptors have been described previously (Amarori and Nakanishi, Neuron 8, 757-765, 1992; Tanabe et al., Neuron 8, 169-179, 1992, and J. Neurochem. 63, 2038-2047, 1993). They are maintained at 37° C. in a humidified 5% CO2 incubator in Dubecco's Modified Eagle Medium (DMEM) containing a reduced concentration of(S)-glutamine (2 mM) and are supplemented with 1% proline, penicillin (100 U/mL), streptomycin ([…]) and 10% dialyzed fetal calf serum (all GIBCO, Paisley). Two days before assay 1.8×10^6 cells are evenly distributed into the wells of 24 well plates.
Phosphatidylinositol (PI) hydrolysis can be measured as described previously (Hayashi et al., Nature 366, 687-690,1992, and J. Neuroscience 14, 3370-3377, 1994). Briefly, the cells are labeled with [^3H]inositol (2 μCi/mL) 24 h prior to the assay. For agonist assays, the cells are incubated with test compound dissolved in phosphate-buffered saline (PBS)-LiC] for 20 min, and agonist activity is determined from the level of ^3H-labeled mono-, bis- and tris-inositol phosphates generated, as measured following ion-exchange chromatography, compared with the level generated in the absence of the test compound. […] The antagonist activity is then determined as the inhibitory effect of the (S)-Glu mediated response. […]

[3] = inhibition of the glutamate-caused decrease in forskolin-induced cyclic AMP accumulation, read-out: Group II/III Antagonist EC50
[4] = inhibition of forskolin-induced cyclic AMP accumulation, read-out: Group II/III Agonist EC50

T1 sequence (P23385 19-1199): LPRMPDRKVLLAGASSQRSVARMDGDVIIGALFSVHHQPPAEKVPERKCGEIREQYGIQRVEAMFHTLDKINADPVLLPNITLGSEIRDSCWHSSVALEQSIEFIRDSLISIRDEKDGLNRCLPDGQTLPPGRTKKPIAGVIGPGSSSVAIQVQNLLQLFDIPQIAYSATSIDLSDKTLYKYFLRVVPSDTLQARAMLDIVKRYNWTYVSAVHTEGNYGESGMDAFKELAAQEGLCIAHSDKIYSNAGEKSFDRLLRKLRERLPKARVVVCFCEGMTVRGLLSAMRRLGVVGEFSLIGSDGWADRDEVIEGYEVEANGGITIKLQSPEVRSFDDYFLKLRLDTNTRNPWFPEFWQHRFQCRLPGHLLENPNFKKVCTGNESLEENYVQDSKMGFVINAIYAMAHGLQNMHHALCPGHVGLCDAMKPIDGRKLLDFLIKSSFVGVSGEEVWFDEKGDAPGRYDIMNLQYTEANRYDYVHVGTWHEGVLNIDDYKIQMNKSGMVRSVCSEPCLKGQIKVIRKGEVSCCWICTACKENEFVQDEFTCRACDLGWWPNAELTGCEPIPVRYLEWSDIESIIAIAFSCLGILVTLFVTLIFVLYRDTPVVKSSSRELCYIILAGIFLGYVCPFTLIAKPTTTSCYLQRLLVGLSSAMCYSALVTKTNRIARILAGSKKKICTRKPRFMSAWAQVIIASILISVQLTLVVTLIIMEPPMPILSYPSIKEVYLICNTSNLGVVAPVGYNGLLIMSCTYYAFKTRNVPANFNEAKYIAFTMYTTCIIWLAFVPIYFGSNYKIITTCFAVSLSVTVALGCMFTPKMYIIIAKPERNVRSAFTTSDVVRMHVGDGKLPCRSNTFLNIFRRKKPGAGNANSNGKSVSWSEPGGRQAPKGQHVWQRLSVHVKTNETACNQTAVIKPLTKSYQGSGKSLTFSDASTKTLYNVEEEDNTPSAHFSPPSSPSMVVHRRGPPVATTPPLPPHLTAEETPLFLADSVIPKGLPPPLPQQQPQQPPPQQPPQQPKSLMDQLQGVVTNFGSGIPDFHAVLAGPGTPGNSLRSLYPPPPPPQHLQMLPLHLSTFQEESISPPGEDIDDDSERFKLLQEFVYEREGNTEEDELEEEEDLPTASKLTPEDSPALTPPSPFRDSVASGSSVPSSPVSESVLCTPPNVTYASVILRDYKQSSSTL

| SMILES | EC50 [1, 3] [nM] | EC50 [2] [nM] | EC50 [1, 4] [nM] | Group II/III Agonist [1] | Group II/III Antagonist [1] | Group I Agonist [2] | Group I Antagonist [2] | antagonist activity: block of the increase in PI hydrolysis by (L)-glutamic acid at the mGluR1α receptor (mGluR1α receptor) |
| --- | --- | --- | --- | --- | --- | --- | --- | --- |
| N[C@]1(C(=O)O)c2ccccc2C[C@H]1CC(=O)O (relative stereo) [Compound 9, Trans-1-amino-1-carboxyindane-2-acetic acid] | 34 | 1100 |  |  |  |  |  |  |
| N[C@]1(C(=O)O)C[C@@H](CC(=O)O)c2ccccc21 (relative stereo) [Compound 13, Trans-1-amino-1-carboxyindane-3-acetic acid] |  | 1.3 | 990 |  |  |  |  |  |
| N[C@@]1(C(=O)O)C[C@H](C(=O)O)c2ccccc21 (stereo in doubt) [Compound 4b, Cis-1-aminoindane-1,3-dicarboxylic acid] |  |  | 2100 |  |  |  |  |  |
| N[C@]1(C(=O)O)C[C@H](C(=O)O)c2ccccc21 [Compound 4a, Trans-1-aminoaindane-1,3-dicarboxylic acid] |  | 480 |  | No | No | No | Yes | effectively blocked |
| NC(C(=O)O)C1c2ccccc2CC1CC(=O)O (centres unmarked) [Compound 18, 1-[2-amino]-2-indanediacetic acid] | 26 | 14000 | 460 | Yes | Yes | No | Yes |  |
| NC(C(=O)O)C1CC(C(=O)O)c2ccccc21 (centres unmarked) [Compound 23, 1-[2-amino]-3-carboxyindaneacetic acid] | 610 |  |  | No | Yes | No | No |  |
